Test results as given in patent US20140148446A1, “COMPOUNDS THAT ENABLE ALTERNATIVE MITOCHONDRIAL ELECTRON TRANSFER” (University of North Texas Health Science Center, priority 2010, published 2014).

Experiments:
[1] = test system: mitochondrial complex I-III; format: biochemical, rat
Experimental: (§1) Fresh rat heart was removed and placed in ice-cold mitochondrial isolation buffer containing 210 mM mannitol, 70 mM sucrose, 5 mM HEPES, and 1 mM EDTA, pH 7. The heart was homogenized immediately, and the mitochondrial fraction was isolated by differential centrifugation as described previously (Trounce et al., 1996). Mitochondria were stored at −80° C. until subsequent analysis.
(§2) All mitochondrial activity assays were performed according to previous publications with minimal modifications for complex I (Lenaz et al., 2004), complex I-III, complex II, complex III, and II-III (Trounce et al., 1996). […] Complex I activity was monitored by adding NADH to the mix with or without rotenone/antimycin A. The final data were normalized to blank values at time zero. The reaction was monitored in a kinetic spectrophotometer at 340 nm. Complex I activity was measured in arbitrary units and normalized to control levels for statistical analysis. Isolated mitochondria equivalent to 40-200 μg mitochondrial protein was used for each assay, except for assays with inhibitors, when larger amount of mitochondria (3 to 5 folds) were used to ensure that inhibition was distinguishable. Final data were normalized to control levels. For complex I-III activity, the reaction was initiated with the addition of NADH, cyt c was used as final substrate and its reduction was monitored at 550 nm. For assay of complex II-III activity, succinate was added instead of NADH, and the electron transfer to cyt c was performed according to previous publications (Atamna et al., 2008). To test whether the electrons from the reduced form of MB (MBH2) can be transferred to cyt c in mitochondrial lysate, we added 10 μM 2,7-dichlorofluorescin (DCFH, Invitrogen, Carlsbad, Calif.) to the reaction system. Free radicals convert non-fluorescent DCFH to highly fluorescent DCF (Ex, 488 nm, and Em, 530 nm). In the presence of cyt c, which accepts electrons from MBH2, conversion of DCFH to DCF is decreased.

mitochondrial complex II = biological target: T1, mitochondrial complex II (Rattus norvegicus, UniProt P21913+Q641Z9+Q6PCT8+Q920L2); assay: Mitochondrial complex II activity assay; format: biochemical; settings: data not shown
T1 construct: the mitochondrial fraction was isolated by differential centrifugation; from tissue; host or cells: rat heart mitochondria
T1 sequence (Q920L2 35-656): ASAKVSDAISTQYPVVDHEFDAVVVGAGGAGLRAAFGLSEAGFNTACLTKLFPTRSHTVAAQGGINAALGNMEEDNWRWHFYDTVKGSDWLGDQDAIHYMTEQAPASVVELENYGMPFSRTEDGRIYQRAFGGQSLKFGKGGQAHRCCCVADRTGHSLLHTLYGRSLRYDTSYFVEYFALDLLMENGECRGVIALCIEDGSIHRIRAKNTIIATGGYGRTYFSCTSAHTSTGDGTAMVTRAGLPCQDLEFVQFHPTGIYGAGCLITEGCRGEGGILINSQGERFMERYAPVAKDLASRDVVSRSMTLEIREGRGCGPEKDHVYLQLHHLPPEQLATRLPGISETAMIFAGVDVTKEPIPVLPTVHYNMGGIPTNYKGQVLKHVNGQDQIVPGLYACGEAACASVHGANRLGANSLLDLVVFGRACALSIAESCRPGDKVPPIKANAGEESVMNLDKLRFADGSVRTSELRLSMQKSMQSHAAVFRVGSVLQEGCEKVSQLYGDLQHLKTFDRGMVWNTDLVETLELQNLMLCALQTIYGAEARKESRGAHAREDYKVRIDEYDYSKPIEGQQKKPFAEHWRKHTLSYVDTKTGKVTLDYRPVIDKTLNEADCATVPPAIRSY
T1 sequence (P21913 31-282): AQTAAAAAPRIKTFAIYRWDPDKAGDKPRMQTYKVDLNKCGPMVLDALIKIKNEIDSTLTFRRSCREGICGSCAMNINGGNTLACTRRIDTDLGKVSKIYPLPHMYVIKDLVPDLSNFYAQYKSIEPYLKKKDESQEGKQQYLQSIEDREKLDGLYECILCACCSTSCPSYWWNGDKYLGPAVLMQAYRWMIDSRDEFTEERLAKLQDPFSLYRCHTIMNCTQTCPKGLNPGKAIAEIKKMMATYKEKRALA
T1 sequence (Q641Z9 1-169): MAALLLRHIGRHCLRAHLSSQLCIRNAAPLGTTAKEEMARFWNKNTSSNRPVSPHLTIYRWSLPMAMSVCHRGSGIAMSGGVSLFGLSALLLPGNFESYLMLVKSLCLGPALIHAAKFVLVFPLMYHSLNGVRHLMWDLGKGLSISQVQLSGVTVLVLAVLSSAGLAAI
T1 sequence (Q6PCT8 57-159): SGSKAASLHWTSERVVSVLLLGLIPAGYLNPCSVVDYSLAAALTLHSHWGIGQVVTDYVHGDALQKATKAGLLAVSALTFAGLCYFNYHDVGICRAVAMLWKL
Experimental: as §1
(§3) All mitochondrial activity assays were performed according to previous publications with minimal modifications for complex I (Lenaz et al., 2004), complex I-III, complex II, complex III, and II-III (Trounce et al., 1996). […] Complex I activity was monitored by adding NADH to the mix with or without rotenone/antimycin A. The final data were normalized to blank values at time zero. The reaction was monitored in a kinetic spectrophotometer at 340 nm. Complex I activity was measured in arbitrary units and normalized to control levels for statistical analysis. Isolated mitochondria equivalent to 40-200 μg mitochondrial protein was used for each assay, except for assays with inhibitors, when larger amount of mitochondria (3 to 5 folds) were used to ensure that inhibition was distinguishable. Final data were normalized to control levels. For complex I-III activity, the reaction was initiated with the addition of NADH, cyt c was used as final substrate and its reduction was monitored at 550 nm. […]

HT-22 cells [2] = assay: Mitochondrial superoxide and cellular ROS analysis, rotenone treated cells; format: cell-based; settings: MB 100 ng/ml
Experimental: Mitochondrial specific superoxide and cellular ROS were measured with specific fluorescent probes. Briefly, HT-22 cells were treated with vehicle or 2 μM rotenone, with or without 100 ng/ml MB for 4 hr. The cells were dissociated, then incubated in pre-warmed PBS containing 0.5% BSA and H2DCFDA (Cellular ROS) or MitoSox (mitochondrial superoxide) for 15 min at 37° C., followed by washing with PBS. The cells were then resuspended in supplemented RPMI-1640 for further incubation. The cells were analyzed with FITC channel (Cellular ROS), or PE channel (MitoSox) using a BD™ LSRII flow cytometer.

[3] = test system: rotenone induced rat model of PD
Experimental: (§4) Rats were assigned to three groups: control animals received vehicle infusion and daily saline injection (Veh/Sal N=6-8); a second group received rotenone infusion at the dose of 5 mg/kg/day and daily saline injection (ROT/Saline N=8-11); and the third group received rotenone infusion (5 mg/kg/day) and MB injection at the dose of 500 μg/kg/day (ROT/MB N=8-10). Vehicle or rotenone was infused via Alzet osmotic mini pumps that were filled with vehicle or rotenone dissolved in vehicle (equal volumes of dimethylsulfoxide and polyethylene glycol). Pumps containing vehicle or rotenone were sterilized with UV irradiation and implanted subcutaneously on the back. Intraperitoneal injections were administered with normal saline or MB, 500 μg/kg/day, diluted in normal saline to 500 μl of final volume. Rats were sacrificed on day 8 at four hours after last dose of MB or saline treatment.
After completion of neurological assessments and behavioral tests, rats were killed on the 8th day of rotenone infusion under anesthesia induced by xylazine (20 mg/kg, i.p.) and ketamine (100 mg/kg, i.p.). All osmotic pumps were checked for the residual liquid to ensure proper drug delivery. One hemisphere was fixed by 4% paraformaldehyde in phosphate buffer for 48 hr until processing for sectioning. The other hemisphere was snap-frozen in liquid nitrogen, and kept at −80° C. until extraction for biochemical analysis.
Rat hemispheres were sequentially incubated in 10%, 20% and 30% sucrose over night. The brains were then frozen in optimal cutting temperature) compound (VWR, San Francisco Calif.) and sectioned in the coronal plane with a cryostat to produce 20 μm floating sections. For single immunohistochemistry studies, 20-μm sections were blocked with 5% normal goat serum and incubated in primary antibodies at 4° C. over night. […] Double stained sections were examined with conventional fluorescence microscopy, and images were captured on a Zeiss microscope linked to an image analysis system with selective filter sets to visualize FITC, rhodamine, and DAPI separately. […]

[4] = test system: rotenone induced rat model of PD; assay: Rotenone model of PD: body weight, neurological and behavioral assessment; format: in vivo; settings: MB 500 μg/kg/day i.p.
Experimental: as §4
The accelerating rotarod, a motor driven treadmill (Omnitech Electronics, Columbus, Ohio) measures running coordination and motor performance. The rotor consisted of a nylon cylinder with a 7 cm diameter mounted horizontally 35.5 cm above a padded surface. On a given trial, the rats were placed on the cylinder, the cylinder was rotated, and a timer switch was simultaneously activated. Acceleration continued from 0 to a maximum of 44 rpm until animals were unable to stay on top of the rotating rod and fell to the padded surface. […] When the rat landed on the surface, a photosensitive switch was tripped and the timer stopped. Rats were subjected to this test two sessions a day, three trials per session, for 7 sessions. A 20-minute resting period was given between each trial. Animals were given at least two hours break time between sessions each day. Retention times on the rotating treadmill were recorded and plotted for analysis.
Neurological assessment was performed by three evaluators blind to treatment conditions. The evaluators were initially trained until they produced consistent scores when evaluating rats in these tests. Subsequently, experimental subjects were randomized and presented to the evaluators individually. For each session, which consisted of three trials, an individual evaluator scored a rat in only one trial; thus, the final score for a session for each animal was the average score of the three evaluators. The category included: tremor; locomotion; bradykinesia; hypokinesia; posture; and gross motor skills.
Catalepsy was measured by standard bar test and grid test adapted from previous publication. For bar test, the rats were placed with both front paws grasp on a horizontal bar which was 9 cm above the surface. The time, each animal took to remove one paw from the bar was manually measured by a stopwatch. For grid test, rats were placed on a vertical wire grid (25.5 cm width and 44 cm high with a space of 1 cm between each wire) and catalepsy was determined by the length of time the animals maintained all four paws on the grid using a stopwatch. The maximum descent latency was set at 300 seconds for the bar test and 60 seconds for grid test.
For gait analysis, the fore and hind paws of each rat were painted with blue and red dye, respectively. The animals were allowed to walk across an absorbent paper covered straight alley runway (150 cm long, 20 cm wide, opaque walls 20 cm tall) into a dark compartment. Before the test, animals were put in the dark compartment for 2 minutes to habituate to the environment and 3 pre-training runs were conducted for all rats. Three trials were conducted to obtain clear footprints for each animal. Prolonged stop or turning backward in the runway was considered failed trials. The distance of individual steps were analyzed by two independent blinded observers.

[5] = test system: preclinical animal model of Alzheimer's disease; assay: Preclinical animal model of Alzheimer's disease, MB supplemented diet; format: in vivo; settings: long term feeding of MB supplemented diet
HT-22 cells [6] = assay: Cell viability assay, rotenone induced cytotoxicity; format: cell-based; settings: rotenone 8 μM, 100 ng/ml MB co-treatment; vehicle 25.4±1.6%
Experimental: Then cells were treated with vehicle (DMSO), rotenone (2-8 μM), antimycin A (1-10 μg/ml), or glucose oxidase (2-10 mU) in the presence or absence of various concentrations of MB for 24 hours. At the end of the 24 hours, the medium was removed and the plates were rinsed with PBS and incubated with 10 μM calcein-AM (Invitrogen, Carlsbad, Calif.) in PBS for 20 minutes. Fluorescence was determined using a TECAN M200 microplate reader (San Jose, Calif.) with an excitation/emission set at 485/530 nm. Cell culture wells treated with bleach before rinsing were used as blank.

HT-22 cells [7] = assay: Cell viability assay, H2O2 (glucose oxidase) induced cytotoxicity; format: cell-based
HT-22 cells [8] = assay: Protection against mitochondrial membrane potential collapse induced by glutamate in HT-22 cells; format: cell-based; settings: Mus musculus
[9] = test system: mitochondrial complex III; assay: Mitochondrial complex III activity assay; format: biochemical, rat; settings: data not shown
Experimental: as §1, §3

[10] = test system: mitochondrial complex II-III; assay: Mitochondrial complex II-III activity in extracted mitochondria; format: biochemical, rat; settings: with and without antimycin A
Experimental: as §1, §3

FRDA fibroblast = assay: BSO induced FRDA fibroblast cell death; format: cell-based
HT-22 cells [11] = assay: Protection against ROS production induced by glutamate in HT-22 cells; format: cell-based; settings: Mus musculus
[12] = pH 7.0; cited from earlier work
HT-22 cells [13] = assay: Protection against cell death (cell viability) induced by glutamate in HT-22 cells; format: cell-based; settings: Mus musculus
Experimental: HT-22 cells (gift from Dr. David Schubert, Salk Institute, San Diego, Calif.) were plated at 4,000 cells per well in 96 well plates and cultured over night. […] At the end of the 24 hours, the medium was removed and the plates were rinsed with PBS and incubated with 10 μM calcein-AM (Invitrogen, Carlsbad, Calif.) in PBS for 20 minutes. […] Cell culture wells treated with bleach before rinsing were used as blank.

HT-22 cells [14] = assay: Seahorse XF-24 metabolic flux analysis (OCR, ECAR); format: cell-based
Experimental: HT22 cells were plated at 8,000/well and cultured on Seahorse XF-24 plates. Cells were grown in previously described medium and environments for 24 hr. On the day of metabolic flux analysis, cells were changed to unbuffered DMEM (DMEM base medium supplemented with 25 mM glucose, 10 mM sodium pyruvate, 31 mM NaCl, 2 mM GlutaMax, pH 7.4) and incubated at 37° C. in a non-CO2 incubator for 1 hr. All medium and injection reagents were adjusted to pH 7.4 on the day of assay. Four baseline measurements of oxygen consumption rate (OCR) and extracellular acidification rate (ECAR) were taken before sequential injection of mitochondrial inhibitors. Specific readings indicated by the arrows were taken after each addition of mitochondrial inhibitor before injection of the subsequent inhibitors. The mitochondrial inhibitors used were oligomycin (10 μM), FCCP (1 μM), and rotenone (5 μM). OCR and ECAR were automatically calculated and recorded by the Seahorse XF-24 software. After the assays, plates were saved and protein readings were measured for each well to confirm equal cell numbers per well. The percentage of change compared with the basal rates was calculated as the value of change divided by the average value of baseline readings.

mitochondrial complex I = assay: Mitochondrial complex I activity assay (NADH dehydrogenase); format: biochemical, rat; settings: in place of CoQ1
Experimental: as §1, §2

- Effect on complex II activity alone (mitochondrial complex II): no significant effect
- EC50 (HT-22 cells [8]): 0.0177 µM
- EC50 (HT-22 cells [11]): 0.0204 µM
SMILES: CN(C)c1ccc2nc3ccc(=[N+](C)C)cc-3sc2c1 [methylene blue]
- Complex I-III activity, % of the control level ([1]; 1 μg/ml MB, in the presence of antimycin A): 674±99%
- Complex I-III activity, % of control ([1]; 1 μg/ml MB, in the presence of rotenone): 118.1±6.4%
- Increase of complex I-III activity ([1]; increasing doses of MB (0.1-1 μg/ml)): up to nine-fold increase
- Increase of mitochondrial superoxide (MitoSox probe) (HT-22 cells [2]): almost completely blocked
- Increase of total cellular ROS (DCFH2-DA) (HT-22 cells [2]): almost completely blocked
- TH-positive cells and nerve fiber in SNC and VTN ([3]; ROT/MB animals): a sufficient amount of TH-positive cell and nerve fiber were observed
- Fluoro-jade B-positive TH neurons ([3]; ROT/MB group, 4 out of 11 ROT/Sal animals positive): not found
- Ubiquitin positive inclusion bodies ([3]; ROT/MB group, 6 out 11 ROT/Sal rats positive): not found
- Catalepsy, bar test descent latency [4]: completely reversed
- Catalepsy, grid test latency to fall [4]: attenuated
- Neurological scores (randomized blinded assessment) [4]: significantly improved
- Rotarod performance deficits [4]: almost completely prevented
- Rotenone induced body weight loss [4]: attenuated
- Stride length in gait analysis [4]: improved
- Cognitive functions [5]: improves cognitive functions
- Maximal performance [5]: improves maximal performance
- Cell survival (HT-22 cells [6]): 60.5±4.5%
- Protection against H2O2 induced oxidative damage (HT-22 cells [7]): failed to protect
- Effect on complex III activity alone [9]: no significant effect
- Effect on complex II-III activity [10]: no significant effects
- Damaging effects of BSO (cell death) (FRDA fibroblast): greatly ameliorates
- Redox potential [12]: 11 mV
- EC50 (HT-22 cells [13]; HT-22, glutamate toxicity, HT22 cells, read-out: EC50 against glutamate toxicity in HT22 cells): 0.000176 µM
- EC50 (HT-22 cells [13]; glutamate, HT-22 cells, read-out: Protection against cell death (EC50)): 0.0188 µM
- Extracellular acidification rate (ECAR) (HT-22 cells [14]; 10 μg/ml MB, two hour incubation, vehicle 44±4): 9±3 mPH/min
- Oxygen consumption rate (OCR) (HT-22 cells [14]; 10 μg/ml MB, two hour incubation, vehicle 264±10): 594 ± 19 pmol/min
- Rotenone induced OCR inhibition (HT-22 cells [14]; rotenone 5 μM injection): dose-dependently attenuated
- Substrate of NADH dehydrogenase in complex I (accepts electrons from NADH) (mitochondrial complex I): can completely replace CoQ1 as a direct substrate
